In US8778966B2, “Quinolinone derivatives as PARP and tank inhibitors” (Janssen Pharmaceutica, NV, priority 2007, dated 2014):

Legend:
Human PARP-1 enzyme = target: T1, Human PARP-1 enzyme (Homo sapiens, UniProt P09874); assay: In vitro Scintillation Proximity Assay (SPA) for PARP-1 inhibitory activity; assay type: biochemical; settings: read-out: in vitro SPA assay PARP-1 pIC50 (converted)
T1 construct: purchased Trevigen
Experimental: Compounds of the present invention were tested in an in vitro assay based on SPA technology (proprietary to GE healthcare).
In principle, the assay relies upon the well established SPA technology for the detection of poly(ADP-ribosyl)ation of biotinylated target proteins, i.e histones. This ribosylation is induced using nicked DNA activated PARP-1 enzyme and [^3H]-nicotinamide adenine dinucleotide ([^3H]-NAD^+) as ADP-ribosyl donor.
Histones (type II-A, supplier: Sigma) were biotinylated using the biotinylation kit of Amersham and stored aliquoted at −20° C. A stock solution of 100 mg/ml SPA poly(vinyl toluene) (PVT) beads (supplier: Amersham) was made in PBS. A stock solution of 61.6 nM [^3H]-NAD^+ was made by adding [^3H]-NAD^+ (0.1 mCi/ml, supplier: Perkin Elmer) to incubation buffer (50 mM Tris/HCl, pH 8; 0.2 mM DTT; 4 mM MgCl2). A solution of 4 mM NAD^+ (supplier: Sigma) was made. Human PARP-1 enzyme was obtained from Trevigen. Biotinylated histones and PVT-SPA beads were mixed and pre-incubated for 30 min. at room temperature. PARP-1 enzyme (concentration was lot dependent) was mixed with the nicked DNA and the mixture was pre-incubated for 30 min. at 4° C. Equal parts of this histones/PVT-SPA beads solution and PARP-1 enzyme/DNA solution were mixed and 75 μl of this mixture together with 1 μl of compound in DMSO and 25 μl of [^3H]-NAD^+ was added per well into a 96-well microtiterplate. The final concentrations in the incubation mixture were 2 μg/ml for the biotinylated histones, 2 mg/ml for the PVT-SPA beads, 0.25 μg/ml for the nicked DNA and between 0.1-0.2 μg/ml for the PARP-1 enzyme. After incubation of the mixture for 20 min. at room temperature, the reaction was terminated by adding 100 μl of 4 mM NAD^+ in water (final concentration 2 mM) and plates were mixed. The beads were sedimented by centrifugation (10 min, 800 rpm). and plates transferred to a TopCountNXT™ (Packard) for scintillation counting, values were expressed as counts per minute (cpm). For each experiment, controls (containing PARP-1 enzyme and DMSO without compound), a blank incubation (containing DMSO but no PARP-1 enzyme, no DNA or compound) and samples (containing PARP-1 enzyme, DNA and compound dissolved in DMSO) were run in parallel. All compounds tested were dissolved and eventually further diluted in DMSO. A dose-response curve was made wherein the compounds were tested at concentrations between 10^−5M and 3×10^−9M. In each test, the blank value was subtracted from both the control and the sample values. The control sample represented maximal PARP-1 enzyme activity. For each sample, the amount of cpm was expressed as a percentage of the mean cpm value of the controls. When appropriate, IC50-values (concentration of the drug, needed to reduce the PARP-1 enzyme activity to 50% of the control) were computed using linear interpolation between the experimental points just above and below the 50% level. Herein the effects of test compounds are expressed as pIC50 (the negative log value of the IC50-value). As a reference compound, 4-amino-1,8-naphthalimide was included to validate the SPA assay.

HCT116 cells = assay: Antiproliferative activity, Alamar Blue assay, HCT116 cells; assay type: cell-based, human; parameters: key to HCT116 antiproliferative activity pIC50: pIC50 = -log IC50 (IC50: conc. reducing growth to 50% of control); settings: for IC50: Homo sapiens, HCT-116, HCT116 cells, read-out: HCT116 antiproliferative activity pIC50 (converted)
Experimental: Human colon carcinoma HCT116 cells obtained from the ATCC were cultured in McCoy's 5 A medium supplemented with 2 mM L-Glutamine, 50 μg/ml gentamicin and 10% heat inactivated fetal calf serum.
(§1) Resazurin was purchased from Aldrich (Prod. No. 199303). Potassium ferrocyanide, potassium ferricyanide, KH2PO4 and K2HPO4 were purchased from Sigma (Prod. Nos. P9387, P8131, P5655 and P8281, respectively).
(§2) Potassium Phosphate Buffer 0.1 M (PPB) was made as follows: 2.72 gram KH2PO4 and 13.86 gram K2HPO4 were dissolved in 500 ml milli-Q H2O, the pH was adjusted to pH 7.4 and the volume was brought to 1 litre with milli-Q H2O; the buffer was filter sterilised and stored at room temperature. Resazurin stock solution (PPB-A) was prepared fresh by dissolving 45 mg resazurin in 15 ml PBS. 30 mM potassium ferricyanide (PPB-B) was prepared by dissolving 0.987 gram potassium ferricyanide in 100 ml PPB. 30 mM potassium ferrocyanide (PPB-C) was prepared by dissolving 1.266 gram potassium ferrocyanide in 100 ml PPB.
(§3) Mixture of PPB-A, PPB-B and PPB-C was prepared by mixing equal volumes of the respective solutions. Resazurin work solution (herein termed “Alamar Blue” solution) was prepared by diluting said mixture 20×(vol/vol) in PPB and filter sterilising; the Alamar Blue solution could be kept at 4° C. for a maximum of 2 weeks.
(§4) For experiments in 384 wells plates the cells were seeded at a density of 4.5×10^3 cells/ml in Falcon 384-well culture plates (Life Technologies, Merelbeke, Belgium), black with clear bottom, in 45 μl culture medium. Cells were allowed to adhere to plastic for 24 hr. The tested compound was pre-diluted (1/50 in culture medium) and 5 μl pre-diluted compound was added to the wells. Following 4-day incubation, 10 μl of the Alamar Blue solution was added to each well and the cells were further incubated for 4 hrs (HCT116) or 24 hrs (PC-3) at 37° C. The fluorescence intensity was measured for each well on a Fluorescence plate reader (Fluorskan, Labsystems, 540 nm excitation and 590 nm emission)
(§5) The antiproliferative activity was calculated as percentage of remaining viable cells in treated versus control (untreated cells) conditions. Within an experiment, the result for each experimental condition is the mean of 3 replicate wells. When appropriate, the experiments were repeated to establish full concentration-response curves. When appropriate, IC50-values (concentration of the drug, needed to reduce cell growth to 50% of the control) were computed using probit analysis for graded data (Finney, D. J., Probit Analyses, 2nd Ed. Chapter 10, Graded Responses, Cambridge University Press, Cambridge 1962). Herein the effects of test compounds are expressed as pIC50 (the negative log value of the IC50-value) (see Table 2).

PC-3 cells = assay: Antiproliferative activity, Alamar Blue assay, PC-3 cells; assay type: cell-based, human; settings: for IC50: Homo sapiens, PC-3, PC3 cells, read-out: PC3 antiproliferative activity pIC50 (converted)
Experimental: Human prostate cancer PC-3 cells obtained from the ATCC were cultured in HAM′S F12 medium supplemented with 1 mM Sodium Pyruvate, 1.5 g/L Sodium Bicarbonate, 50 μg/ml gentamicin, non-essential amino acids and 10% fetal calf serum.
as §1, §2, §3, §4, §5

PC3 cells = assay: EB1 Comet (microtubule disruption) assay; assay type: cell-based, human; settings: 1 hour treatment
Experimental: The Eb1 Comet assay relies on the detection of the Eb1 protein at the plus end of polymerizing microtubules (Mimori-Kiyosue, 2000) using indirect immunofluorescence. Disruption of microtubule dynamics through de-polymerization or stabilization results in a de-localization of Eb1 from the growing microtubule ends and this is visualized by the disappearance of Eb1 containing cytoplasmic foci.
Briefly, human prostate cancer PC3 cells obtained from the American Type Culture Collection were grown in 96-well plates (Greiner, cat. no. 655090) in HAM's F12 medium as recommended by the provider (ATCC). The cells were treated for 1 hour at 37° C. with compounds dissolved in DMSO (0.6% final DMSO concentration). The culture medium was then removed by aspiration and the cells were fixed by adding cold methanol (−20 C). After a 15 min. incubation at −20 C, the cells were washed twice with DPBS (Gibco) containing 0.5% Triton X-100. Mouse Eb1 antibody (BD Transduction Laboratories, cat. no. 610534) was added to the cells (1/250 dilution in DPBS containing 1% BSA) and incubated overnight at room temperature. The antibody was subsequently removed and the cells washed twice with DPBS, 0.5% Triton X-100. Secondary goat anti-mouse antibody conjugated to Alexa 488 fluorescent dye (Molecular Probes) was added at a 1/500 dilution in DPBS, 1% BSA and incubated for 1 hour at 37 C. The cells were washed twice with DPBS, 0.5% Triton X-100 and then DPBS containing 0.5% Triton X-100 and 1/5000 Hoechst 33342 (Molecular Probes) was added. Microscopy based Eb1 foci visualization was carried out using an IN Cell Analyser 1000 (Amersham Biosciences) using a 20× objective. Compound dependent microtubule disruption was visually determined by the disappearance in Eb1 foci. The lowest active concentration (LAC) was determined as the concentration where Eb1 foci were absent in at least 50% of the treated cells.

TANK-2 enzyme = target: T2, TANK-2 enzyme (Homo sapiens, UniProt Q9H2K2); assay: In vitro Scintillation Proximity Assay (SPA) for TANK-2 inhibitory activity; assay type: biochemical; settings: read-out: in vitro SPA assay TANK-2 pIC50 (converted)
T2 construct: made in house
T2 sequence (Q9H2K2 1-1166): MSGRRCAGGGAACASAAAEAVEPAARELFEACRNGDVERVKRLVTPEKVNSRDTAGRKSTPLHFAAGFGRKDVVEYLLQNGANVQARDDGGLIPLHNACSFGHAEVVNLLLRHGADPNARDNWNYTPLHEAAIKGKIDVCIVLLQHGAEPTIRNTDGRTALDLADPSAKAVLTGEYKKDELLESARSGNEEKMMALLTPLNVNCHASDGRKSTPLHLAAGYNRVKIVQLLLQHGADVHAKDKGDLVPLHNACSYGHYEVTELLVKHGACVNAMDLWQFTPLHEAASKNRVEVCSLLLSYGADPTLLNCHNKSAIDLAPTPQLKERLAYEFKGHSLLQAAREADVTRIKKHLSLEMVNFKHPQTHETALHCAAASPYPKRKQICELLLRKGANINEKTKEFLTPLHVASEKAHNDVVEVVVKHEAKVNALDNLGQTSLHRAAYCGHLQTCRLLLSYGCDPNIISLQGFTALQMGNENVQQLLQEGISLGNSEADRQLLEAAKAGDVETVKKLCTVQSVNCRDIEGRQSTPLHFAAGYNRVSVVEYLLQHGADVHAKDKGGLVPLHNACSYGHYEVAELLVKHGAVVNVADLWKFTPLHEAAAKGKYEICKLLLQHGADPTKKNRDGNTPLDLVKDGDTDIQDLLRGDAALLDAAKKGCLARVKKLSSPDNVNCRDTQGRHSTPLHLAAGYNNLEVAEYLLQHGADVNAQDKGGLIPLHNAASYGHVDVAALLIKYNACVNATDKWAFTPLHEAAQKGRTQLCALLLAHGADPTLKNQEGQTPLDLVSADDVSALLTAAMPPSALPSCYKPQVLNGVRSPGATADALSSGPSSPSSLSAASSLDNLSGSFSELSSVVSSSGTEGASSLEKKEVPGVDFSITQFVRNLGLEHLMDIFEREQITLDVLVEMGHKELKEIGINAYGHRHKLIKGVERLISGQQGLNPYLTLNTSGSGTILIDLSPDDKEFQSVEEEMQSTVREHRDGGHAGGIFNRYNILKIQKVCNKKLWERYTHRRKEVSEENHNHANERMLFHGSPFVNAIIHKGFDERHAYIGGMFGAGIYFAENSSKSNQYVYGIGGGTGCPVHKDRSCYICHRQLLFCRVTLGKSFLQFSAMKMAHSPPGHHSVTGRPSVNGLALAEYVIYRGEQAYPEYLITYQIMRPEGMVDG
Experimental: Compounds of the present invention were tested in an in vitro assay based on SPA technology with Ni Flash plates (96 or 384 well). In principle, the assay relies upon SPA technology for the detection of auto-poly(ADP-ribosyl)ation of TANK-2 protein using [^3H]-nicotinamide adenine dinucleotide ([^3H]-NAD^+) as ADP-ribosyl donor.
A stock solution of 100 nM [3H]-NAD^+/NAD (0.1 mCi/ml, supplier: Perkin Elmer) and 0.25 μM NAD (Sigma) was made in assay buffer (60 mM Tris/HCl, pH 7.4; 0.9 mM DTT; 6 mM MgCl2). The TANK-2 enzyme was produced as described in EP1238063. 60 μl of assay buffer, together with 1 μl of compound in DMSO, 20 μl of [^3H]-NAD^+/NAD and 20 μl of TANK-2 enzyme (final concentration 8 μg/ml) was added per well into a 96-well Ni-coated flash plate (Perkin Elmer). After incubation of the mixture for 120 min. at room temperature, the reaction was terminated by adding 60 μl of stopsolution (42.6 mg NAD in 6 ml H2O). The plates were covered with a plate sealer and placed in a TopCountNXT™ (Packard) for scintillation counting. Values were expressed as counts per minute (cpm). For each experiment, controls (containing TANK-2 enzyme and DMSO without compound), a blank incubation (containing DMSO but no TANK-2 enzyme or compound) and samples (containing TANK-2 enzyme and compound dissolved in DMSO) were run in parallel. All compounds tested were dissolved and eventually further diluted in DMSO. In first instance, compounds were tested at a concentration of 10^−5M. […] In each test, the blank value was subtracted from both the control and the sample values. The control sample represented maximal TANK-2 enzyme activity. For each sample, the amount of cpm was expressed as a percentage of the mean cpm value of the controls. When appropriate, IC50-values (concentration of the drug, needed to reduce the TANK-2 enzyme activity to 50% of the control) were computed using linear interpolation between the experimental points just above and below the 50% level. Herein the effects of test compounds are expressed as pIC50 (the negative log value of the IC50-value). As reference compounds, 3-aminobenzamide and 4-amino-1,8-naphtalimide were included to validate the SPA assay. Herein the assay was described using 96-well plates. In the assay using 384-well plates the same final concentrations were used and volumes were adapted.

T1 sequence (P09874 whole entry): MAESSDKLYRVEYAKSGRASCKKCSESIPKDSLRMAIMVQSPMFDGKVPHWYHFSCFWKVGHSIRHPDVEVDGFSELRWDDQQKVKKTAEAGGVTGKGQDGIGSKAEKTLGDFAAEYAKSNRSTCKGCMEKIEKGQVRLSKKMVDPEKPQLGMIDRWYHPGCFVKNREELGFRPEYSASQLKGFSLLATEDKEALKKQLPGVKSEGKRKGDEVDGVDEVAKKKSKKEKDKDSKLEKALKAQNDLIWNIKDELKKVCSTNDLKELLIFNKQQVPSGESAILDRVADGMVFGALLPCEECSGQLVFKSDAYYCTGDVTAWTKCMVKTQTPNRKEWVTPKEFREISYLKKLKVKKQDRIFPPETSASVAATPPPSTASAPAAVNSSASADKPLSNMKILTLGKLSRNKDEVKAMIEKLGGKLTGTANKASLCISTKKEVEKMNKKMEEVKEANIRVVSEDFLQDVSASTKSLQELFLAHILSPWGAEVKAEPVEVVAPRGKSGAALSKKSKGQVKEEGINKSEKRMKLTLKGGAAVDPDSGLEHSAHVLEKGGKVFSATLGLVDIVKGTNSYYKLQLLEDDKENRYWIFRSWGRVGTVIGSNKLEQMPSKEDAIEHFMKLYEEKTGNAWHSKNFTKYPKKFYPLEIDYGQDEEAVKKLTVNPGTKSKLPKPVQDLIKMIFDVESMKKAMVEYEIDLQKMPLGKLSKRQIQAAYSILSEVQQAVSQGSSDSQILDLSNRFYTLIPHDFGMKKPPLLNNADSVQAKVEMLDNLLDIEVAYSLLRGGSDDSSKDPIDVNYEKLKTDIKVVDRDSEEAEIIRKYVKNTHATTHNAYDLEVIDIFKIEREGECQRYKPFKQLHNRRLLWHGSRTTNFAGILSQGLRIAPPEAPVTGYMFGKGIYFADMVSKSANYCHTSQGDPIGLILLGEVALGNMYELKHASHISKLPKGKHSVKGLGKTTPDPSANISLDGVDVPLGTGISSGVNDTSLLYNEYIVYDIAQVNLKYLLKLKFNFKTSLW

Row | IC50 (Human PARP-1 enzyme) | IC50 (HCT116 cells) | IC50 (PC-3 cells) | HCT116 antiproliferative activity pIC50 (HCT116 cells; HCT116 cells) | PC3 antiproliferative activity pIC50 (PC-3 cells; PC3 cells) | IC50 (TANK-2 enzyme) | SMILES | minimal effective concentration (PC3 cells; Homo sapiens, PC-3, 1 h, read-out: EB1 pLAC (converted)) | EB1 pLAC (PC3 cells)
1 | 501 nM | 2000 nM | 2510 nM |  |  |  | Cc1cc2ccc([C@](C)(C#N)[C@H]3CCc4cc(Br)ccc43)cc2[nH]c1=O [Compound 239] | 1 µM | 
2 | 316 nM |  |  | 5.4 | 5.2 |  | Cc1cc2ccc(C(C)(C#N)C3CCc4cc(Br)ccc43)cc2[nH]c1=O (stereo not shown) [Compound 243] |  | 6
3 | 50.1 nM |  |  |  |  | 1000 nM | Cc1cc2ccc([C@@](C)(C#N)[C@H]3CCCc4ccccc43)cc2[nH]c1=O [Compound 384] |  | 
4 | 251 nM | 5010 nM | 10000 nM |  |  |  | Cc1cc2ccc([C@@](C)(C#N)[C@@H]3CCc4ccc(Br)cc43)cc2[nH]c1=O [Compound 408] |  | 
